Experimental data as given in PMC7531004, “Discovery of gramicidin A analogues with altered activities by multidimensional screening of a one-bead-one-compound library” (Nature Communications, 2020).
Where a SMILES comes first, the peptide text is derived from it. [ ]: non-standard residue; d: D form. The star is where a group is joined. NHCH2CH2OH = OCCN*; For = O=C*

Experiments:
[1] = system: Streptococcus pyogenes SSI-9; experiment: Antibacterial activity assay of bead-derived peptides (three concentrations); assay type: cell-based; parameters: key: +++: inhibition by the 640-fold diluted peptide solution; ++: inhibition by the 160-fold diluted solution; +: inhibition by the 40-fold diluted solution; -: no inhibition; details: S. pyogenes, bead-derived peptide solution, three concentrations
Summary of the method: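 Three stock dilutions per peptide (none, 4-fold, 16-fold in DMSO) are screened in 96-well format. The medium is blood-supplemented cation-adjusted MHB, inoculated with 2 × 10^5 CFU S. pyogenes SSI-9. Growth is read as cell precipitation at 18 h, 37 °C.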

[2] = H+/Na+ transport assay of bead-derived peptides (one-point); assay type: biochemical; parameters: key: relative activity; mean of two control wells = 1.00; details: bead-derived peptide solution, EYPC/EYPG LUVs;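 also: relative to parent gramicidin A activity set to 1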
Summary of the method: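 H+/Na+ transport is monitored through pyranine fluorescence in freshly extruded LUVs after a 30-min room-temperature vortex with each library peptide at a single concentration. Signals are normalized to detergent (Triton X-100) and untreated controls.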

[3] = system: P388 mouse leukemia cells; details: 92 h
Summary of the method: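 First, library peptide stocks are diluted 250-fold in RPMI1640 with 10% heat-inactivated FBS. Next, they are mixed with P388 cells to give 1 × 10^4 cells/mL and incubated 92 h at 37 °C, 5% CO2. Finally, viability (%) is scored by WST-1 absorbance at 415 nm.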

Row | Compound | antibacterial activity [1] | H+/Na+ transport activity normalized against the value of 1 (1.00) [2] | cell viability/% [3]
1 | CNC(=O)C[C@@H](NC(=O)[C@H](Cc1c[nH]c2ccccc12)NC(=O)[C@@H](CC(C)C)NC(=O)[C@H](Cc1c[nH]c2ccccc12)NC(=O)[C@H](NC(=O)[C@H](Cc1c[nH]c2ccccc12)NC(=O)[C@H](NC(=O)[C@@H](NC(=O)[C@@H](CC(C)C)NC(=O)[C@H](C)NC(=O)[C@@H](CC(C)C)NC(=O)[C@H](C)NC(=O)CNC(=O)[C@@H](NC=O)C(C)C)C(C)C)C(C)C)C(C)C)C(=O)N[C@@H](Cc1c[nH]c2ccccc12)C(=O)NCCO [compound 10678] (For-VGA[dL]A[dL]V[dV]W[dV]W[dL]W[dD](NHMe)W-NHCH2CH2OH) | - | 1.10 | 76.0%
2 | CC(C)C[C@@H](NC(=O)[C@H](Cc1c[nH]c2ccccc12)NC(=O)[C@H](NC(=O)[C@H](Cc1c[nH]c2ccccc12)NC(=O)[C@H](NC(=O)[C@H](Cc1c[nH]c2ccccc12)NC(=O)[C@H](NC(=O)[C@@H](NC(=O)[C@H](NC(=O)[C@H](C)NC(=O)[C@H](NC(=O)[C@H](C)NC(=O)CNC(=O)[C@@H](NC=O)C(C)C)C(C)C)C(C)C)C(C)C)C(C)C)C(C)C)C(C)C)C(=O)N[C@@H](Cc1c[nH]c2ccccc12)C(=O)NCCO [compound 10699] (For-VGA[dV]A[dV]V[dV]W[dV]W[dV]W[dL]W-NHCH2CH2OH) | - | 1.09 | 100.0%
3 | CC(C)C[C@@H](NC(=O)[C@H](C)NC(=O)CNC(=O)[C@@H](NC=O)C(C)C)C(=O)N[C@@H](C)C(=O)N[C@H](CC(C)C)C(=O)N[C@H](C(=O)N[C@@H](C(=O)N[C@@H](Cc1c[nH]c2ccccc12)C(=O)N[C@@H](C(=O)N[C@@H](Cc1c[nH]c2ccccc12)C(=O)N[C@H](CC(C)C)C(=O)N[C@@H](Cc1c[nH]c2ccccc12)C(=O)N[C@H](CC(C)C)C(=O)N[C@@H](Cc1c[nH]c2ccccc12)C(=O)NCCO)C(C)C)[C@H](C)O)C(C)C [compound 10710] (For-VGA[dL]A[dL]V[dT]W[dV]W[dL]W[dL]W-NHCH2CH2OH) | - | 1.05 | 100.0%
4 | CC(C)C[C@@H](NC(=O)[C@H](C)NC(=O)[C@H](NC(=O)[C@H](C)NC(=O)CNC(=O)[C@@H](NC=O)C(C)C)C(C)C)C(=O)N[C@H](C(=O)N[C@@H](C(=O)N[C@@H](Cc1c[nH]c2ccccc12)C(=O)N[C@@H](C(=O)N[C@@H](Cc1c[nH]c2ccccc12)C(=O)N[C@@H](C(=O)N[C@@H](Cc1c[nH]c2ccccc12)C(=O)N[C@H](CC(C)C)C(=O)N[C@@H](Cc1c[nH]c2ccccc12)C(=O)NCCO)C(C)C)C(C)C)[C@H](C)O)C(C)C [compound 11143] (For-VGA[dV]A[dL]V[dT]W[dV]W[dV]W[dL]W-NHCH2CH2OH) | - | 1.19 | 63.4%
5 | CC(C)C[C@@H](NC(=O)[C@H](Cc1c[nH]c2ccccc12)NC(=O)[C@@H](CC(C)C)NC(=O)[C@H](Cc1c[nH]c2ccccc12)NC(=O)[C@H](NC(=O)[C@H](Cc1c[nH]c2ccccc12)NC(=O)[C@@H](CC(C)C)NC(=O)[C@@H](NC(=O)[C@H](NC(=O)[C@H](C)NC(=O)[C@H](NC(=O)[C@H](C)NC(=O)CNC(=O)[C@@H](NC=O)C(C)C)C(C)C)C(C)C)C(C)C)C(C)C)C(=O)N[C@@H](Cc1c[nH]c2ccccc12)C(=O)NCCO [compound 11146] (For-VGA[dV]A[dV]V[dL]W[dV]W[dL]W[dL]W-NHCH2CH2OH) | + | 1.08 | 100.0%
6 | CC(C)C[C@@H](NC(=O)[C@H](C)NC(=O)CNC(=O)[C@@H](NC=O)C(C)C)C(=O)N[C@@H](C)C(=O)N[C@H](CC(C)C)C(=O)N[C@H](C(=O)N[C@H](CC(C)C)C(=O)N[C@@H](Cc1c[nH]c2ccccc12)C(=O)N[C@@H](C(=O)N[C@@H](Cc1c[nH]c2ccccc12)C(=O)N[C@H](CC(C)C)C(=O)N[C@@H](Cc1c[nH]c2ccccc12)C(=O)N[C@H](CC(C)C)C(=O)N[C@@H](Cc1c[nH]c2ccccc12)C(=O)NCCO)C(C)C)C(C)C [compound 11198] (For-VGA[dL]A[dL]V[dL]W[dV]W[dL]W[dL]W-NHCH2CH2OH) | - | 1.08 | 3.2%
7 | CC(C)C[C@@H](NC(=O)[C@H](Cc1c[nH]c2ccccc12)NC(=O)[C@H](NC(=O)[C@H](Cc1c[nH]c2ccccc12)NC(=O)[C@@H](CC(C)C)NC(=O)[C@H](Cc1c[nH]c2ccccc12)NC(=O)[C@H](NC(=O)[C@@H](NC(=O)[C@H](NC(=O)[C@H](C)NC(=O)[C@H](NC(=O)[C@H](C)NC(=O)CNC(=O)[C@@H](NC=O)C(C)C)[C@H](C)O)C(C)C)C(C)C)C(C)C)C(C)C)C(=O)N[C@@H](Cc1c[nH]c2ccccc12)C(=O)NCCO [compound 11199] (For-VGA[dT]A[dV]V[dV]W[dL]W[dV]W[dL]W-NHCH2CH2OH) | - | 1.00 | 65.2%
8 | CC(C)C[C@@H](NC(=O)[C@H](C)NC(=O)CNC(=O)[C@@H](NC=O)C(C)C)C(=O)N[C@@H](C)C(=O)N[C@H](CC(C)C)C(=O)N[C@H](C(=O)N[C@H](CC(C)C)C(=O)N[C@@H](Cc1c[nH]c2ccccc12)C(=O)N[C@H](CC(C)C)C(=O)N[C@@H](Cc1c[nH]c2ccccc12)C(=O)N[C@@H](C(=O)N[C@@H](Cc1c[nH]c2ccccc12)C(=O)N[C@@H](C(=O)N[C@@H](Cc1c[nH]c2ccccc12)C(=O)NCCO)C(C)C)C(C)C)C(C)C [compound 11214] (For-VGA[dL]A[dL]V[dL]W[dL]W[dV]W[dV]W-NHCH2CH2OH) | - | 1.02 | 2.6%
9 | CNC(=O)C[C@@H](NC(=O)[C@@H](NC(=O)[C@@H](CC(C)C)NC(=O)[C@H](C)NC(=O)[C@H](NC(=O)[C@H](C)NC(=O)CNC(=O)[C@@H](NC=O)C(C)C)C(C)C)C(C)C)C(=O)N[C@@H](Cc1c[nH]c2ccccc12)C(=O)N[C@@H](C(=O)N[C@@H](Cc1c[nH]c2ccccc12)C(=O)N[C@@H](C(=O)N[C@@H](Cc1c[nH]c2ccccc12)C(=O)N[C@H](CC(C)C)C(=O)N[C@@H](Cc1c[nH]c2ccccc12)C(=O)NCCO)C(C)C)C(C)C [compound 11226] (For-VGA[dV]A[dL]V[dD](NHMe)W[dV]W[dV]W[dL]W-NHCH2CH2OH) | - | 1.04 | 76.8%
10 | CNC(=O)C[C@@H](NC(=O)[C@@H](NC(=O)[C@@H](CC(C)C)NC(=O)[C@H](C)NC(=O)[C@@H](CC(C)C)NC(=O)[C@H](C)NC(=O)CNC(=O)[C@@H](NC=O)C(C)C)C(C)C)C(=O)N[C@@H](Cc1c[nH]c2ccccc12)C(=O)N[C@@H](C(=O)N[C@@H](Cc1c[nH]c2ccccc12)C(=O)N[C@@H](C(=O)N[C@@H](Cc1c[nH]c2ccccc12)C(=O)N[C@H](CC(C)C)C(=O)N[C@@H](Cc1c[nH]c2ccccc12)C(=O)NCCO)C(C)C)C(C)C [compound 11228] (For-VGA[dL]A[dL]V[dD](NHMe)W[dV]W[dV]W[dL]W-NHCH2CH2OH) | - | 1.27 | 76.4%
11 | CC(C)C[C@@H](NC(=O)[C@H](Cc1c[nH]c2ccccc12)NC(=O)[C@H](NC(=O)[C@H](Cc1c[nH]c2ccccc12)NC(=O)[C@@H](CC(C)C)NC(=O)[C@@H](NC(=O)[C@H](NC(=O)[C@H](C)NC(=O)[C@H](NC(=O)[C@H](C)NC(=O)CNC(=O)[C@@H](NC=O)C(C)C)[C@H](C)O)C(C)C)C(C)C)C(C)C)C(=O)N[C@@H](Cc1c[nH]c2ccccc12)C(=O)N[C@@H](C(=O)N[C@@H](Cc1c[nH]c2ccccc12)C(=O)NCCO)C(C)C [compound 11238] (For-VGA[dT]A[dV]V[dL]W[dV]W[dL]W[dV]W-NHCH2CH2OH) | - | 1.03 | 64.7%
12 | CC(C)C[C@@H](NC(=O)[C@H](C)NC(=O)[C@H](NC(=O)[C@H](C)NC(=O)CNC(=O)[C@@H](NC=O)C(C)C)C(C)C)C(=O)N[C@H](C(=O)N[C@H](CC(C)C)C(=O)N[C@@H](Cc1c[nH]c2ccccc12)C(=O)N[C@H](CC(C)C)C(=O)N[C@@H](Cc1c[nH]c2ccccc12)C(=O)N[C@@H](C(=O)N[C@@H](Cc1c[nH]c2ccccc12)C(=O)N[C@@H](C(=O)N[C@@H](Cc1c[nH]c2ccccc12)C(=O)NCCO)C(C)C)C(C)C)C(C)C [compound 11280] (For-VGA[dV]A[dL]V[dL]W[dL]W[dV]W[dV]W-NHCH2CH2OH) | - | 1.04 | 9.9%
13 | CC(C)C[C@@H](NC(=O)[C@H](C)NC(=O)CNC(=O)[C@@H](NC=O)C(C)C)C(=O)N[C@@H](C)C(=O)N[C@H](CC(C)C)C(=O)N[C@H](C(=O)N[C@@H](C(=O)N[C@@H](Cc1c[nH]c2ccccc12)C(=O)N[C@H](CC(C)C)C(=O)N[C@@H](Cc1c[nH]c2ccccc12)C(=O)N[C@H](CC(C)C)C(=O)N[C@@H](Cc1c[nH]c2ccccc12)C(=O)N[C@@H](C(=O)N[C@@H](Cc1c[nH]c2ccccc12)C(=O)NCCO)C(C)C)[C@H](C)O)C(C)C [compound 11295] (For-VGA[dL]A[dL]V[dT]W[dL]W[dL]W[dV]W-NHCH2CH2OH) | - | 1.12 | 78.1%
